Source: patent US10856562B2, “Flavor composition and edible compositions containing same” (MARS, INCORPORATED, priority 2013, dated 2020)
Entries after “also recorded” stand apart in the source; their conditions may differ. Square brackets hold non-standard residues; d marks the D form. Ends that are not written are not given here. pGlu = O=C1CC[C@@H](C(=O)O)N1

Key:
panelists = experiment: Descriptive profile (Spectrum method) of peptide in 0.2% NaCl solution, in-mouth; assay type: in vivo, human; conditions: for Astringent, in-mouth perception / Bitter, in-mouth perception / Flinty/Mineral, in-mouth perception / Metallic, in-mouth perception / Numbing, in-mouth perception / Salt, in-mouth perception (mean salt perception in-mouth) / Sour, in-mouth perception / Sweet, in-mouth perception: mean score, 15-point scale; for Level of the aromatics, basic tastes and chemical feeling factors in-mouth with increasing concentration: 0.1 to 40.0/50.0 ppb; for Salt perception in-mouth as the concentration increases: 0.1 to 40.0/50.0 ppb in 0.2% NaCl; for Umami like swelling of lips and tongue, in-mouth: all levels; for Umami like feeling factor of lip and tongue swelling: both in-mouth and after expectoration
Method: Descriptive Profiles (Flavor and Chemical Feeling Factors) of five use levels of a pGlu-Val-Leu flavor composition were determined using the Spectrum™ method. The five use levels were as follows: 0.1 ppb, 0.5 ppb, 1.0 ppb, 10.0 ppb and 40.0 ppb.
Data was collected for the flavor and chemical feeling factors of the product in-mouth for each of the five use levels according to the following protocol. One replication was collected for the flavor and chemical feeling factors of the product in-mouth. 6-9 panelists evaluated per session.
2. Each panelist tasted a test sample (0.1 ppb, 0.5 ppb, 1.0 ppb, 10.0 ppb or 40.0 ppb all in 0.2% NaCl solution). Only one sample was tasted per session.
Descriptive attributes (e.g., taste, flavor and chemical feeling factors) of six use levels of pGlu-Val-Leu (SE-13), pGlu-Val (SE-14) and pGlu-Val-Val (SE-17) flavor composition peptides were determined. The six use levels were as follows: 0.1 ppb, 0.5 ppb, 1.0 ppb, 10.0 ppb, 40.0 ppb and 50.0 ppb.
Data was collected for the attributes of the product in-mouth for the use levels according to the following protocol: • The samples were analyzed for flavor and aftertaste by six-nine members of a panel, trained and experienced in appearance, flavor and texture evaluation using the Spectrum™ method. Samples in solution were evaluated across multiple panel sessions. • The strength of each attribute was rated on a 15-point scale, where 0=none and 15=very strong. • This scale incorporates the ability to use tenths of a point and therefore has the potential of 150 scale differentiations. • The scale may be expanded beyond 15 points to include extreme ratings if necessary.
Attribute Perception Protocol • The panelists evaluated each sample using the following procedure • Descriptive Profiles (flavor and chemical feeling factors) of 5 levels of salt enhancing solutions • Individual data was collected for the flavor and chemical feeling factors of the product in-mouth • Increased Salt Perception Protocol • Each panelist tasted salt 5 reference (0.35% salt solution)—to ground themselves on salt intensity of 5.0. • Each panelist tasted the test sample (0.1 ppb, 0.5 ppb, 1.0 ppb, 10.0 ppb or 40.0/50.0 ppb all in 0.2% NaCl solution: only one per session) • Each panelist then re-tasted the salt 5 reference and rated it for salt intensity as well as any other basic taste, chemical feeling factor, or aromatic perceived. This captured any increased salt perception indicated by the test sample as well as any other perceptions present. • Return to Baseline Protocol • After evaluating the sample for salt & other perceptions, panelists re-tasted the salt 5 reference at 1 minute intervals until their perception of the salt 5 saltiness intensity had returned to 5.0. Each panelist recorded their salt intensity at each interval and took qualitative notes on other perceptions seen in aftertaste. Sample Preparation
The 0.1, 0.5, 1.0 10, 40, and 50 ppb test samples of the flavor composition peptides were prepared in water as described in table 4.
The panelists evaluated each sample for the attributes described in table 5.

panel of trained tasters = experiment: Saltiness of sodium-reduced pasta sauce with peptides, panel of trained tasters; assay type: in vivo, human
Method: Food product compositions were prepared by admixing flavor composition peptide(s) of the present application with food compositions, wherein the level of sodium (NaCl) in the food product compositions was reduced. The level of sodium was reduced by 25%, 50% or 75% compared to food products compositions that were not admixed with flavor composition peptides. The food product compositions comprising the flavor composition peptides were tasted by a panel of trained tasters and the level of saltiness was compared to the control food products.
The peptides pGlu-Val-Leu (identified as “SE-13”), pGlu-Val-Cys (identified as “UE-30”) and pGlu-Val-Val (identified as “SE-17”) were tested in Pasta Sauce. The control pasta sauce comprised 540 mg sodium (NaCl) in a 125 g serving.

## [pGlu]-Val-Leu [SE-13]
panelists; 0.1 ppb in 0.2% NaCl
  Astringent, in-mouth perception: 0.0
  Bitter, in-mouth perception: 0.0
  Flinty/Mineral, in-mouth perception: 0.1
  Metallic, in-mouth perception: 0.1
  Numbing, in-mouth perception: 0.0
  Salt, in-mouth perception (mean salt perception in-mouth): 2.3
  Sour, in-mouth perception: 0.0
  Sweet, in-mouth perception: 0.0
panelists
  Level of the aromatics, basic tastes and chemical feeling factors in-mouth with increasing concentration: does not increase
  Salt perception in-mouth as the concentration increases: does not increase notably; also recorded: Does not show a notable increase
  Umami like swelling of lips and tongue, in-mouth: Panelists also experience Umami like swelling of lips and tongue
  Umami like feeling factor of lip and tongue swelling: Shows umami like feeling factor of lip and tongue swelling
panelists; listed as pGlu-Val-Leu
  Salt perception in-mouth as the concentration increases: did not significantly increase
panelists; 0.5 ppb in 0.2% NaCl
  Astringent, in-mouth perception: 0.0
  Bitter, in-mouth perception: 0.0
  Flinty/Mineral, in-mouth perception: 0.3
  Metallic, in-mouth perception: 0.3
  Numbing, in-mouth perception: 0.0
  Salt, in-mouth perception (mean salt perception in-mouth): 2.8
  Sour, in-mouth perception: 0.0
  Sweet, in-mouth perception: 0.2
panelists; 1.0 ppb in 0.2% NaCl
  Astringent, in-mouth perception: 0.0
  Bitter, in-mouth perception: 0.0
  Flinty/Mineral, in-mouth perception: 0.5
  Metallic, in-mouth perception: 0.1
  Numbing, in-mouth perception: 0.0
  Salt, in-mouth perception (mean salt perception in-mouth): 2.3
  Sour, in-mouth perception: 0.0
  Sweet, in-mouth perception: 0.0
panelists; 10.0 ppb in 0.2% NaCl
  Astringent, in-mouth perception: 0.0
  Bitter, in-mouth perception: 0.0
  Flinty/Mineral, in-mouth perception: 0.3
  Metallic, in-mouth perception: 0.1
  Numbing, in-mouth perception: 0.0
  Salt, in-mouth perception (mean salt perception in-mouth): 3.1
  Sour, in-mouth perception: 0.0
  Sweet, in-mouth perception: 0.0
panelists; 40.0 ppb in 0.2% NaCl
  Astringent, in-mouth perception: 0.0
  Bitter, in-mouth perception: 0.0
  Flinty/Mineral, in-mouth perception: 0.4
  Metallic, in-mouth perception: 0.1
  Numbing, in-mouth perception: 0.0
  Salt, in-mouth perception (mean salt perception in-mouth): 2.8
  Sour, in-mouth perception: 0.0
  Sweet, in-mouth perception: 0.0
Panel of trained tasters; 25% sodium reduction, 10 and 1 ppb, n=4
  Saltiness compared to control at 25% reduction: to control, slightly less salty.
Panel of trained tasters; control 540 mg Na/serving, test 25, 50, 75% reduction, 10 ppb and 1 ppb, n=4
  Saltiness compared to control: Test variables perceived less

## [pGlu]-Val-Val [SE-17]
panelists; 0.1 ppb in 0.2% NaCl
  Astringent, in-mouth perception: 0.0
  Bitter, in-mouth perception: 0.0
  Flinty/Mineral, in-mouth perception: 0.7
  Metallic, in-mouth perception: 0.0
  Numbing, in-mouth perception: 0.0
  Salt, in-mouth perception (mean salt perception in-mouth): 3.1
  Sour, in-mouth perception: 0.0
  Sweet, in-mouth perception: 0.0
panelists
  Level of the aromatics, basic tastes and chemical feeling factors in-mouth with increasing concentration: does not increase
  Salt perception in-mouth as the concentration increases: does not increase notably; also recorded: Does not show a notable increase; also recorded: did not necessarily increase
  Umami like swelling of lips and tongue, in-mouth: Some panelists also experience Umami like swelling of lips and tongue
  Umami like feeling factor of lip and tongue swelling: Shows umami like feeling factor of lip and tongue swelling
panelists; 0.5 ppb in 0.2% NaCl
  Astringent, in-mouth perception: 0.0
  Bitter, in-mouth perception: 0.0
  Flinty/Mineral, in-mouth perception: 0.8
  Metallic, in-mouth perception: 0.3
  Numbing, in-mouth perception: 0.0
  Salt, in-mouth perception (mean salt perception in-mouth): 4.0
  Sour, in-mouth perception: 0.0
  Sweet, in-mouth perception: 0.0
panelists; 1.0 ppb in 0.2% NaCl
  Astringent, in-mouth perception: 0.0
  Bitter, in-mouth perception: 0.0
  Flinty/Mineral, in-mouth perception: 0.5
  Metallic, in-mouth perception: 0.0
  Numbing, in-mouth perception: 0.0
  Salt, in-mouth perception (mean salt perception in-mouth): 2.8
  Sour, in-mouth perception: 0.0
  Sweet, in-mouth perception: 0.0
panelists; 10.0 ppb in 0.2% NaCl
  Astringent, in-mouth perception: 0.0
  Bitter, in-mouth perception: 0.0
  Flinty/Mineral, in-mouth perception: 0.5
  Metallic, in-mouth perception: 0.0
  Numbing, in-mouth perception: 0.0
  Salt, in-mouth perception (mean salt perception in-mouth): 3.6
  Sour, in-mouth perception: 0.0
  Sweet, in-mouth perception: 0.0
panelists; 50.0 ppb in 0.2% NaCl
  Astringent, in-mouth perception: 0.0
  Bitter, in-mouth perception: 0.0
  Flinty/Mineral, in-mouth perception: 0.5
  Metallic, in-mouth perception: 0.0
  Numbing, in-mouth perception: 0.0
  Salt, in-mouth perception (mean salt perception in-mouth): 3.9
  Sour, in-mouth perception: 0.0
  Sweet, in-mouth perception: 0.0
panelists; overall
  Levels of salt perception in-mouth, comparison of SE-13, SE-14 and SE-17: highest levels
Panel of trained tasters; control 540 mg, test 405 mg Na, SE-13 or SE-17 10 ppb, UE-30 1 ppb, n=4
  Saltiness compared to control: significantly less salty than
Panel of trained tasters; test 405 mg Na, SE-17 10 ppb, UE-30 1 ppb
  Salt enhancement: UE-30 did not provide a big
